Values joined by “and” are separate entries in the source; they are usually repeats but may differ in a detail not shown here. Identical values can stand only once.

Data set [1] concerns the target T1, purified rabbit kidney neutral endopeptidase (Oryctolagus cuniculus, UniProt P08049).
T1 construct: from tissue; host or cells: rabbit kidney (purified enzyme)
T1 sequence (P08049 1-750): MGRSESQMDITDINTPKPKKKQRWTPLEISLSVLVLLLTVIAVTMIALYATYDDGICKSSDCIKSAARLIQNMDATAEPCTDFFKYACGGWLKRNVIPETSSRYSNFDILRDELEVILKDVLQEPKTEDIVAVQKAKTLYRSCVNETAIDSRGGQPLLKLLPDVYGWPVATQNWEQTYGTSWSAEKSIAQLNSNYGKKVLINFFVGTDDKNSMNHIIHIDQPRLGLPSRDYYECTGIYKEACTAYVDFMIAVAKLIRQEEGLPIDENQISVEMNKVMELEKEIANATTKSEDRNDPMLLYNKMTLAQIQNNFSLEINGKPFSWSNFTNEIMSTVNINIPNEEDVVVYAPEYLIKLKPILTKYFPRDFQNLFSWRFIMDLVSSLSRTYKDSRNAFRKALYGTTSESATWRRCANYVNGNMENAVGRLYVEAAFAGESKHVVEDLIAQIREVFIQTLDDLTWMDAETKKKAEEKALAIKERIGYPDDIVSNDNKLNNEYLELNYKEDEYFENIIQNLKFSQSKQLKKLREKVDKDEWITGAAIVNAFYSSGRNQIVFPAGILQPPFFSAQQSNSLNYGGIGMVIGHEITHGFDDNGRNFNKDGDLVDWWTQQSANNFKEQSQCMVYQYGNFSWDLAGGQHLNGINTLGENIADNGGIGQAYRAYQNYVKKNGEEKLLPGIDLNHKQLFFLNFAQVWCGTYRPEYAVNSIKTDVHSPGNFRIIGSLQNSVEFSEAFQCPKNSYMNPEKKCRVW
Nature of the data set: In vitro inhibitory potency against neutral endopeptidase. Conditions: purified rabbit kidney enzyme, (3H)-D-Ala2-Leu5-enkephalin, 25° C., pH 7.4, DTT 100 equivalents. It counts as biochemical. The method, then: (§1) The biological activity relates to the inhibition of purified aminopeptidase N and of purified neutral endopeptidase.
(§2) 1) In vitro inhibition of enkephalinase activities.
a) Inhibitory potency against neutral endopeptidase
The inhibitory power is determined on purified rabbit kidney neutral endopeptidase following the protocol described in the literature (Blumberg et al. Life Sci. (1981) 28, 301). After a preincubation for 15 minutes at 25° C., an aliquot of proteins is incubated for 20 minutes at 25° C. in the presence of 20 nmol of (^3 H)-D-Ala^2 -Leu^5 -enkephalin and the test compound in solution in Tris-HCl buffer (pH 7.4) in the presence of dithiothreitol DTT (100 equivalents relative to the inhibitor). The reaction is stopped by adding 0.2 N HCl. The tritiated metabolite (^3 H)-Tyr-D-Ala-Gly is separated from the D-Ala^2 -Leu^5 -enkephalin by chromatography on a Porapak column, and the quantity formed measured using a liquid scintillation counter.
The activity of the different compounds is expressed as 50% inhibitory concentrations (IC50), and the results are summarized in Table II.

Data set [2] concerns the target T2, purified porcine kidney aminopeptidase N (Sus scrofa, UniProt P15145).
T2 construct: purchased Boehringer, France; host or cells: porcine kidney
T2 sequence (P15145 1-963): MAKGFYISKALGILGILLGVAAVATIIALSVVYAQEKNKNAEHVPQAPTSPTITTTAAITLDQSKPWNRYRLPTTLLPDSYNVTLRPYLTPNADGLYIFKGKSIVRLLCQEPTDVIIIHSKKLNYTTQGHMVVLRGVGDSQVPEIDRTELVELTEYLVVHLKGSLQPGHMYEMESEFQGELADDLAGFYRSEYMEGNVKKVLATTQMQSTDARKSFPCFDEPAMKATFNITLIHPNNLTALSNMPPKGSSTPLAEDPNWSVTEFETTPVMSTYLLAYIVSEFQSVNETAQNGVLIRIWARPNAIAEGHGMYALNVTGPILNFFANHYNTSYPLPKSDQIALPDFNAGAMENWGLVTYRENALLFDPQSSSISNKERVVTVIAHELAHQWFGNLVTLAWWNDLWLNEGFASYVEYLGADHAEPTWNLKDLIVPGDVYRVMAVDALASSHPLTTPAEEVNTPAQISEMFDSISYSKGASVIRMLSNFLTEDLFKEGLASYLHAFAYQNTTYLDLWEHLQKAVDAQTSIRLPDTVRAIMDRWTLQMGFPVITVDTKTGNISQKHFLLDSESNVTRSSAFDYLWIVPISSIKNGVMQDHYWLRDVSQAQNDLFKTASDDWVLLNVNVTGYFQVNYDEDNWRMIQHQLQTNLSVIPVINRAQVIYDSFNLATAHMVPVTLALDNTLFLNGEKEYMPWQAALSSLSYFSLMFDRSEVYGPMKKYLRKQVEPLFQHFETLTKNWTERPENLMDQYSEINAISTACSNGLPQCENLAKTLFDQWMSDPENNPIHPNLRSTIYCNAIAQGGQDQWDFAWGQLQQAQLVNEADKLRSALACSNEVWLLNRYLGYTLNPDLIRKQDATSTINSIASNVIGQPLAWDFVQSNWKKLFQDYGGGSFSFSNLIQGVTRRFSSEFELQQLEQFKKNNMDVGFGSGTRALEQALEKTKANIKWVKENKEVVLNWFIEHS
Nature of the data set: In vitro inhibitory potency against aminopeptidase N. Conditions: purified porcine kidney enzyme, (3H)-Leu5-enkephalin, DTT. The data set is classed as biochemical. The protocol:
as §1, §2
b) Inhibitory potency against aminopeptidase N
The inhibitory power is measured on purified porcine kidney aminopeptidase (Boehringer, France). The assay is performed in a manner identical to the above, using (^3 H)-Leu^5 -enkephalin as a substrate. The metabolite formed, (^3 H)-Tyr, is separated by chromatography on a Porapak column, and the quantity formed measured using a liquid scintillation counter.

A short description of the next data set: Hot plate test, i.v. The data set is classed as in vivo. The conditions noted are these: Mus musculus, iv, mice, hot plate 55° C., Table III 50% analgesia. The protocol:
(§3) 1) Hot .plate test: This involves the licking and jumping reflex of the mouse on a plate heated to 55° C., according to the method of Jacob et al (Arch Int. Pharmacodyn. 122 287, 1959; 1961).
1.1. Administered i.v. (100 μl in tail vein) in mice, the compounds tested display a characteristic effect both on the latency time of jumping and on latency time of licking. These effects are antagonized by naloxone (0.5 mg/kg s.c.).
The results are expressed in Table III as a % analgesia. The percentage analgesia is expressed for each dose of compound tested by the following formula: [formula]
On the technique in general: Hot-plate and tail-flick tests time the reaction to a heat stimulus.

A short description of the next data set: Hot plate test, i.p. The data set is classed as in vivo. Conditions: mice. The method, then: as §3
1.2 Administered i.p. in mice, the test compounds display a characteristic effect on the times of restraint of jumping and of licking. These effects are antagonized by naloxone (0.5 mg/kg).

Data set [3] in a line: Tail flick test (withdrawal of the tail), i.v. It counts as in vivo. The conditions noted are these: rats, 10 mg/kg. The method, then: 3) Test of withdrawal of the tail in rats: (tail flick test): administered i.v. in rats, the compounds according to the invention produce a significant extension of the time of withdrawal of the tail. These effects are antagonized by naloxone (0.5 mg/kg s.c.).
The results are expressed as a % analgesia for the same dose (10 mg/kg) of all the compounds tested.

A short description of data set [4]: Locomotor activity (righting movements) after long-term sulpiride. The data set is classed as in vivo, rats. The conditions noted are these: rat, after three weeks of sulpiride, control rat 100%. The method, then: c) Potentiation of the behavioral effects (locomotor hyperactivity) induced by the compounds according to the invention after long-term treatment with […]: 1 h after i.v. or p.o. administration in rats, the compounds according to the invention induce an increase in locomotor activity. […] This potentiation is not apparent until three weeks after the beginning of the treatment with neuroleptics.

The next data set is described as follows: Mice despair test. It counts as in vivo. Conditions: mouse, controls 165 ± 15, p < 0.01. The protocol: This test, described by Porsolt et al. (Arch. Int. Pharmacodyn. Ther, 299, 327 (1977), enables the antidepressant properties of the claimed compounds to be evaluated.
Mice are treated with increasing doses of the compounds thirty minutes before the test, and the immobility of the animals is measured relative to controls which receive only the vehicle. The immobility time is decreased by the compounds according to the invention, and this effect is antagonized by naloxame (0.5 mg/kg s.c.).

A short description of data set [5]: Tolerance after long-term administration, mice (% analgesia). The conditions noted are these: mouse, in vivo. It counts as in vivo. The protocol:
(§4) e) Study of the tolerance and addiction effects induced by long-term administration of the compound of Example 8:
(§5) 1) The compound 8 is administered s.c. four times per 24 hours at a dose of 5 mg/kg for 6 days to mice and at 10 mg/kg to rats.
(§6) Morphine (hydrochloride) is administered under the same conditions (0.5 mg/kg in mice, 2 mg/kg in rats). The control animals receive only the vehicle.

Data set [6] is described as follows: Tolerance after long-term administration, rats (% analgesia). It counts as in vivo. The conditions noted are these: rat, in vivo. The method, then:
as §4, §5, §6

Data set [7] is described as follows: Addiction effects: naloxone-precipitated abstinence syndrome after long-term treatment. The conditions noted are these: rats, 6 days long-term treatment, naloxone 2 mg/kg s.c.; compared to morphine. The data set is classed as in vivo. The method, then:
as §5
2) After long-term treatment for 6 days under the conditions described above, the rats undergo an injection of 2 mg/kg of naloxane s.c. The signs of abstinence syndrome are measured according to Cowan et al. (J. Pharmacol. Exp. Ther. (1988) 246, 950).

In a further data set the test system is cerebral NEP. Nature of the data set: In vivo inhibition of cerebral NEP. Conditions: mice, i.v., 2.7 μmol/kg (Example 7: same conditions). The protocol: 2) "In vivo" inhibition of cerebral NEP
The enzymatic activity of cerebral NEP is compared in mice untreated or treated with a given dose of compound (approximately 2.5 mg/kg injected intravenously. The animals are sacrificed at variable times after injection of the inhibitor, and the NEP activity is determined in the brain by measuring the degradation of (^3 H)-D-Ala^2 -Leu^5 -enkephalin.
For the final compound of Example 1, injected at a dose of 2.7 μmol/kg (47.6 μg in 100 μl), the following results are obtained: […]

A short description of data set [8]: Test on abdominal cramps induced by phenylbenzoquinone, i.v. The data set is classed as in vivo. The protocol: 2) Test on abdominal cramps
(Hendershot and Forsaith. J. Pharmacol. (1975), 125, 237): This test measures the number of cramps induced by i.p. injection of 100 μl of a 0.02% solution of phenylbenzoquinone. The number of cramps is counted during 10 minutes, 10 minutes after the injection. Administered i.v., the compounds decrease the number of cramps.

Data set [9] is described as follows: Cross-tolerance with morphine, i.v. injection into morphine-tolerant animal. The conditions noted are these: mouse or rat.

With `CSCCC(N)CSSCC(Cc1ccccc1)C(=O)NCC(=O)OCc1ccccc1` (stereo not drawn) [Example 5], the IC50 in [1] and in data set [2] was 2 nM each time. Further, the 50% effective dose (ED50) in the data set “Hot plate test, i.v.” came out at 2.5 mg/kg. Also, in the data set “Hot plate test, i.p.”, the “dose in i.p. hot plate table” value was found to be 7 mg/kg. Further, the “% analgesia (tail flick)” value in data set [3] is 25%. Also, in data set [4] (i.v., 5 mg/kg), the Locomotor activity is given as 400%. Besides, the Immobility time in “Mice despair test” (5 mg/kg i.p.) is given as 108 ± 12 s.
Take `C[S+]([O-])CCC(N)CSSCC(Cc1ccccc1)C(=O)NCC(=O)OCc1ccccc1` (stereo not drawn) [Example 8]: the IC50 in data set [1] and in data set [2] was 2 nM throughout. In the data set “Hot plate test, i.v.”, this compound had an ED50 of 2.5 mg/kg. In addition, the “% analgesia relative to the controls” value is 100 ± 10% and 100 ± 8% and 70 ± 15% in [5]; 40 ± 5% and 30 ± 7% in data set [6]. Also, in data set [7], the addiction effects result is recorded as “very weak addiction effects”.
As to `C[S+]([O-])CCC(N)CSSCC(CC[S+](C)[O-])C(=O)NC(CC(=O)OCc1ccccc1)Cc1ccccc1` (stereo not drawn) [Example 30], the IC50 in data set [1] stood at 3 nM; in data set [2] it was 2 nM. This compound came in with an ED50 in the data set “Hot plate test, i.v.” of 3 mg/kg. Further, the Locomotor activity is 370% in [4] (i.v. (so in the source), 20 mg/kg) and 350% in [4] (i.v., 2 mg/kg). For the same compound, the Immobility time in “Mice despair test” (2 mg/kg i.p.) was 96 ± 8 s; in the data set “Mice despair test” (20 mg/kg p.o.), 101 ± 10 s.
As to `CSCCC(N)CSSCC(Cc1ccccc1)C(=O)NC(Cc1ccccc1)C(=O)OCc1ccccc1` (stereo not drawn) [Example 7], in [1], the IC50 came out at 2.5 nM. The figures for the “% inhibition cerebral NEP” value with cerebral NEP (60'), in the data set with cerebral NEP (120') and in the data set on cerebral NEP (180') were 96 ± 5%, 96 ± 4% and 92 ± 4%, respectively. This compound yielded an ED50 in the data set “Hot plate test, i.v.” of 5 mg/kg. In “Hot plate test, i.p.”, the “dose in i.p. hot plate table” value is given as 8 mg/kg. The “% analgesia (abdominal cramps)” value was 32% ± 4 in [8] (2.5 mg/kg), 68% ± 9 in data set [8] (5 mg/kg) and 95% ± 4 in [8] (10 mg/kg). The “% analgesia (tail flick)” value in [3] was found to be 42%. In addition, the Locomotor activity in [4] (i.v., 3 mg/kg) was 400%. Also, the “analgesic response in morphine-tolerant animal” value in data set [9] was “analgesic response identical to that obtained in a control animal”. For the same compound, in data set [9], the cross-tolerance with morphine result is listed as “absence of cross-tolerance”.

As usually defined, the IC50 is the point on the concentration scale where inhibition reaches its midpoint. The term ED50 denotes the midpoint of the dose-response relation.

These data come from patent US5491169A, “Amino acid derivatives and their therapeutical applications” (priority 1989, dated 1996).
